Results taken from patent US7629379B2, “Substituted phosphonate fluorescent sensors and use thereof” (Queen Mary & Westfield College, priority 2003, dated 2009).
Structures can show the parent of a compound that is named as a salt.

Legend:
[1] = test system: Zn^+2 in fibrosarcoma cells; assay: Imaging of Zn^+2 in fibrosarcoma cells; format: cell-based; details: added to any of the wells with phosphonate and zinc

Compound | melting point [°C] | uptake into cells (Fibrosarcoma cells) | further results
O=P(O)(O)COc1cccc2cccnc12 (as salt: salt) [Example 2, 8-quinolyloxy methylphosphonic acid] | 285 to 288 |  | 
CCOP(=O)(COc1ccc2c(c1)[nH]c1ccccc12)OCC [Example 8, diethyl-2-carbazolyloxymethylphosphonate] | 159 | taken up in the cytoplasm within the fibrosarcoma cells | 
O=P(O)(O)COc1ccc2c(c1)[nH]c1ccccc12 [Example 9, 2-carbazolyloxymethyl phosphonic acid] | 291 |  | 
c1ccc(CN(CCN(Cc2ccccn2)Cc2ccccn2)Cc2ccccn2)nc1 [TPEN, N,N,N′,N′-tetrakis(2-pyridylmethyl)ethylenediamine] |  |  | effect of excess chelator on the cell fluorescence [1]: very significant quenching of the fluorescence
O=P([O-])([O-])Cn1c2ccccc2c2ccccc21.[Na+].[Na+] [di sodium N-carbazolylmethylphosphonate] |  | taken up in the cytoplasm within the fibrosarcoma cells | penetration of brain cell types and regions (Slices of rat brain): went into the endothelial and neuronal cells
Cc1cc(=O)oc2cc(OCP(=O)(O)O)ccc12 [di-sodium salt of Example 5, 4-methylcoumarin 7-oxymethylphosphonic acid] |  | taken up in the cytoplasm within the fibrosarcoma cells | 
